Data on 13 compounds can be found in ChEMBL document CHEMBL3044810, “Synthesis and herbicidal activity of alkyl 1-(3-trifluoromethylphenoxyacetoxy)-1-substituted methylphosphonates” (J Pestic Sci, 2007).

The test system of test [1] is Brassica napus. The test is described as follows: Pre-emergence herbicidal activity against Brassica napus (oilseed rape) assessed as growth inhibition at 1.5 ai kg/ha under green house conditions. It is filed as functional.
Test [2] deals with Echinochloa crus-galli. The test is described as follows: Pre-emergence herbicidal activity against Echinochloa crus-galli (barnyard grass) assessed as growth inhibition at 1.5 ai kg/ha under green house conditions. The format is functional.
The test system of test [3] is Brassica napus. The test can be described thus: Post-emergence herbicidal activity against Brassica napus (oilseed rape) assessed as growth inhibition at 1.5 ai kg/ha under green house conditions. The format is functional.
Test [4] relates to Medicago sativa. The test can be described thus: Post-emergence herbicidal activity against Medicago sativa (alfalfa) assessed as growth inhibition at 1.5 ai kg/ha under green house conditions. It is filed as functional.
Another test deals with Cucumis sativus. The test can be described thus: Pre-emergence growth inhibition of Cucumis sativus (cucumber) under green house conditions. The format is functional, organism-based.
Test [5] concerns Echinochloa crus-galli. The test is described as follows: Post-emergence herbicidal activity against Echinochloa crus-galli (barnyard grass) assessed as growth inhibition at 1.5 ai kg/ha under green house conditions. The format is functional.
Test [6] concerns Medicago sativa. The test can be described thus: Pre-emergence herbicidal activity against Medicago sativa (alfalfa) assessed as growth inhibition at 1.5 ai kg/ha under green house conditions. It is filed as functional.
In test [7] the test system is Digitaria sanguinalis. The test is described as follows: Post-emergence herbicidal activity against Digitaria sanguinalis (hairy crabgrass) assessed as growth inhibition at 1.5 ai kg/ha under green house conditions. The format is functional.
The test system of test [8] is Digitaria sanguinalis. The test is described as follows: Pre-emergence herbicidal activity against Digitaria sanguinalis (hairy crabgrass) assessed as growth inhibition at 1.5 ai kg/ha under green house conditions. It is filed as functional.
The subject of test [9] is Amaranthus retroflexus. The test is described as follows: Post-emergence herbicidal activity against Amaranthus retroflexus assessed as growth inhibition at 1.5 ai kg/ha under green house conditions. The format is functional.
For test [10], the system named is Amaranthus retroflexus. The test is described as follows: Pre-emergence herbicidal activity against Amaranthus retroflexus assessed as growth inhibition at 1.5 ai kg/ha under green house conditions. It is filed as functional.

As for `COP(=O)(OC)C(C)OC(=O)COc1cccc(Cl)c1Cl` (configuration not stated), the “growth inhibition (GI)” value is 0% in the test on Brassica napus [1]; 19.1% in the test with Echinochloa crus-galli [2]; 23.3% in the test with Brassica napus [3]; 0% with Medicago sativa [4]; 13.6% with Echinochloa crus-galli [5]; 8.3% in the test with Medicago sativa [6]. The “growth inhibition (GI)” value came out at 35.5% with Digitaria sanguinalis [7], 0% in the test with Digitaria sanguinalis [8], 43.8% in the test with Amaranthus retroflexus [9] and 16.7% with Amaranthus retroflexus [10]. Besides, the IC50 with Cucumis sativus came out at 74.11 µg/g.

Turning to `COP(=O)(OC)C(C)OC(=O)COc1cccc(F)c1` (configuration not stated), the “growth inhibition (GI)” value in the test with Brassica napus [1] turned out to be 0%; in the test with Echinochloa crus-galli [2] it was 4.4%; with Brassica napus [3], 0%; in the test on Medicago sativa [4] it was 0%; with Echinochloa crus-galli [5], 17.8%; in the test with Medicago sativa [6], 0%. In addition, the “growth inhibition (GI)” value was determined as 22.7% with Digitaria sanguinalis [7], 0% in the test on Digitaria sanguinalis [8], 0% in the test on Amaranthus retroflexus [9] and 0% in the test with Amaranthus retroflexus [10]. The same compound showed an IC50 with Cucumis sativus of 111.13 µg/g.

For the compound `COP(=O)(OC)C(C)OC(=O)COc1ccc(F)cc1F` (configuration not stated), the “growth inhibition (GI)” value amounted to 39.3% in the test on Brassica napus [1]; 36% with Echinochloa crus-galli [2]; 61% in the test with Brassica napus [3]; 49.4% in the test on Medicago sativa [4]; 20.2% in the test on Echinochloa crus-galli [5]; 52.1% in the test on Medicago sativa [6]. The “growth inhibition (GI)” value in the test on Digitaria sanguinalis [7] was 48.5%; in the test with Digitaria sanguinalis [8], 73.6%; with Amaranthus retroflexus [9], 77.5%; in the test with Amaranthus retroflexus [10], 38.9%. In the test with Cucumis sativus, this compound registered an IC50 of 0.59 µg/g.

On to `COP(=O)(OC)C(C)OC(=O)COc1cc(F)cc(F)c1` (configuration not stated), for which the “growth inhibition (GI)” value in the test with Brassica napus [1] is 0%; with Echinochloa crus-galli [2], 0%; in the test on Brassica napus [3], 0%; in the test with Medicago sativa [4], 0%; in the test with Echinochloa crus-galli [5] it was 3.8%; in the test on Medicago sativa [6] it was 10.4%. For the same compound, the “growth inhibition (GI)” value in the test on Digitaria sanguinalis [7] is listed as 27.2%; with Digitaria sanguinalis [8], 0%; with Amaranthus retroflexus [9], 14.9%; with Amaranthus retroflexus [10], 0%. In the test on Cucumis sativus, the IC50 was 93.5 µg/g.

For the compound `COP(=O)(OC)C(OC(=O)COc1ccc([N+](=O)[O-])cc1)c1ccccc1` (configuration not stated), the “growth inhibition (GI)” value is listed as -2.78% with Brassica napus [1]; 0.8% in the test on Echinochloa crus-galli [2]; 5.49% in the test on Brassica napus [3]; 0% in the test on Echinochloa crus-galli [5]; -5.2% in the test with Digitaria sanguinalis [7]; 0% with Digitaria sanguinalis [8]. Also, the IC50 in the test with Cucumis sativus came out at 223 µg/g.

Consider `COP(=O)(OC)C(C)OC(=O)COc1ccccc1` (configuration not stated), for which the “growth inhibition (GI)” value in the test with Brassica napus [1] amounted to 7.1%; in the test with Echinochloa crus-galli [2], 0%; in the test with Brassica napus [3], 21%; with Medicago sativa [4] it was 9.4%; with Echinochloa crus-galli [5], 12%; with Medicago sativa [6] it was 27.2%. Further, the “growth inhibition (GI)” value in the test with Digitaria sanguinalis [7] is on record as 0%; with Digitaria sanguinalis [8] it was 0%; in the test with Amaranthus retroflexus [9] it was 5%; with Amaranthus retroflexus [10], 0%. The IC50 in the test on Cucumis sativus was 89.1 µg/g.

Consider `CCOP(=O)(OCC)C(C)OC(=O)COc1ccc(C)cc1` (configuration not stated), for which the “growth inhibition (GI)” value turned out to be 62.17% in the test on Brassica napus [1]; 30.9% in the test on Brassica napus [3]; 47.4% in the test on Echinochloa crus-galli [5]; 0% with Digitaria sanguinalis [7]; 0% with Digitaria sanguinalis [8]; 0% with Amaranthus retroflexus [9].

As for `COP(=O)(OC)C(OC(=O)COc1ccc(Cl)cc1Cl)c1ccccc1Cl` (configuration not stated), the “growth inhibition (GI)” value in the test with Brassica napus [1] is listed as 100%; in the test on Echinochloa crus-galli [2], 70%; in the test on Brassica napus [3] it was 100%; in the test with Echinochloa crus-galli [5], 50%; with Digitaria sanguinalis [7], 68.75%; with Digitaria sanguinalis [8], 50%. Further, the “growth inhibition (GI)” value with Amaranthus retroflexus [9] and with Amaranthus retroflexus [10] was 100% in each case. In the test on Cucumis sativus, the IC50 came out at 0.048 µg/g.

Turning to `COP(=O)([O-])COC(=O)COc1ccc(Cl)cc1Cl.[Na+]`, the “growth inhibition (GI)” value in the test on Brassica napus [1] stood at 96.6%; with Echinochloa crus-galli [2] it was 84.6%; with Brassica napus [3], 97.7%; in the test with Medicago sativa [4], 92.5%; in the test on Echinochloa crus-galli [5] it was 28%; in the test on Medicago sativa [6], 100%. Moreover, the “growth inhibition (GI)” value was determined as 28.6% in the test with Digitaria sanguinalis [7], 90.3% with Digitaria sanguinalis [8], 100% with Amaranthus retroflexus [9] and 96.6% in the test on Amaranthus retroflexus [10]. Besides, the IC50 with Cucumis sativus turned out to be 0.31 µg/g.

For `CCCC(OC(=O)COc1ccc(Cl)cc1Cl)P(=O)([O-])OC.[K+]` (configuration not stated), the “growth inhibition (GI)” value was 37% in the test with Brassica napus [1]; 32.1% in the test with Echinochloa crus-galli [2]; 42.6% with Brassica napus [3]; 91.2% in the test on Medicago sativa [4]; 33.8% in the test on Echinochloa crus-galli [5]; 10.2% with Medicago sativa [6]. Besides, the “growth inhibition (GI)” value in the test with Digitaria sanguinalis [7] turned out to be 38.9%; in the test on Digitaria sanguinalis [8], 35.2%; in the test on Amaranthus retroflexus [9], 38.5%; in the test on Amaranthus retroflexus [10], 18.6%. Moreover, the IC50 in the test with Cucumis sativus worked out at 4.21 µg/g.

For the compound `O=C(COc1ccc(Cl)cc1Cl)OC(c1ccccc1Cl)P(=O)(O)O` (configuration not stated), the “growth inhibition (GI)” value was determined as 67% in the test on Brassica napus [1]; 10% with Echinochloa crus-galli [2]; 49% in the test with Brassica napus [3]; 20.5% with Echinochloa crus-galli [5]; 13% in the test on Digitaria sanguinalis [7]; 23% in the test on Digitaria sanguinalis [8]. Also, the “growth inhibition (GI)” value in the test on Amaranthus retroflexus [9] and in the test on Amaranthus retroflexus [10] was 23% in each case.

Consider `COP(=O)(OC)C(C)OC(=O)COc1cccc(C(F)(F)F)c1` (configuration not stated), for which the “growth inhibition (GI)” value in the test with Brassica napus [1] worked out at 56.1%; in the test with Echinochloa crus-galli [2] it was 57.3%; in the test with Brassica napus [3], 92.6%; with Medicago sativa [4], 100%; with Echinochloa crus-galli [5], 12.3%; with Medicago sativa [6], 63.8%. The “growth inhibition (GI)” value with Digitaria sanguinalis [7] stood at 39.1%; with Digitaria sanguinalis [8], 73.1%; with Amaranthus retroflexus [9], 27.3%; in the test on Amaranthus retroflexus [10], 43.4%.

For the compound `COP(=O)(OC)C(C)OC(=O)COc1ccc(Cl)cc1Cl` (configuration not stated) [CLACYFOS], the “growth inhibition (GI)” value with Brassica napus [1] was 99.5%; with Echinochloa crus-galli [2], 70%; with Brassica napus [3], 100%; with Medicago sativa [4], 100%; with Echinochloa crus-galli [5], 50%; with Medicago sativa [6], 98%. Also, the “growth inhibition (GI)” value in the test with Digitaria sanguinalis [7] was 55%; in the test with Digitaria sanguinalis [8] it was 70%; in the test with Amaranthus retroflexus [9], 100%; in the test on Amaranthus retroflexus [10], 100%.
